From patent US8093393B2, “Cationic ceramides, and analogs thereof, and their use for preventing or treating cancer” (MUSC Foundation for Research Development, priority 2004, dated 2012)
Read-outs that look alike come from different tables or passages of the source.

Legend:
[1] = system: MCF7 breast carcinoma cells; assay: Cell proliferation and viability, Trypan blue exclusion assay; assay type: cell-based; settings: 48 h
Outline: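 Cells seeded overnight in 10% FCS, then exposed to LCL compounds at 0-20 μM in ethanol (below 0.1%) for 48 h. Viable cell numbers counted by Trypan blue exclusion under light microscope, expressed as percentage of untreated controls; duplicate samples, two or three independent experiments.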

UM-SCC-1 cells = assay: MTT cell survival assay; assay type: cell-based, human; settings: UM-SCC-1, 48 hr; read-out: IC50, growth
Experimental: Cell lines and culture conditions. […] Cells were grown in DMEM containing 10% FCS and 1% penicillin/streptomycin at 37° C. in 5% CO2. The Wi-38 human lung fibroblasts were obtained from American Type Culture Collection, and were grown in DMEM as described above. Adult human epidermal keratinocytes were purchased from Cascade Biologics, and were maintained in EpiLife medium with growth supplements as described by the manufacturer.
MTT cell survival assay and isobologram studies. […] Triplicate wells were used for each treatment. The final concentration of DMSO (a solvent for conventional ceramides, GMZ and DOX) in the growth medium was less than 0.1% (v/v) which has no effect on cell growth and survival. Pyridinium ceramides were dissolved in sterile water or growth medium. In short, after cells (5-10×10^3/well) were seeded in 96-well-plates for 24 hr, they were treated with increasing concentrations of ceramide analogs for an additional 48 or 96 hr. For combination treatments, ceramides and chemotherapeutic agents (gemcitabine (GMZ) or doxorubicin (DOX)) were added to the growth medium simultaneously during treatment. Isobologram plots were then constructed using IC50 values of the two agents alone or in combination obtained from MTT assays. […]

[2] = IP 40 mg/ml
Experimental: (§1) The determination of MTD, and pharmacokinetic parameters, such as clearance from the serum, and bioaccumulation in various organs, of L-t-C6-Pyr-Cer in vivo. A) MTD of L-t-C6-Pyr-Cer was determined in dose escalation studies, in which BALB/c mice were treated (by IP injections) with increasing concentrations of the compound (10-150 mg/kg), dissolved in sterile saline solution, for 24 hr. […] B and C) The levels of L-t-C6-Pyr-Cer in the serum (B) or in the vital organs (C) of the BALB/c mice were measured by LC/MS after IP injection of the compound for various time points. The experiments were performed in two independent trials as duplicates, and error bars represent standard deviations.
(§2) Animal studies. […] The maximum tolerated dose (MTD) of L-t-C6-Pyr-Cer was determined by dose escalation studies. In short, 7-week-old BALB/c mice were treated with increasing concentrations of the compound for various time intervals. Possible toxicity of the compound to the vital organs of the animals was analyzed by both gross examination, and histopathology. The accumulation of the compound in vital organs and in the serum was also determined by LC/MS as described previously Koybasi S et al. J Biol Chem 2004; 279:44311-44319).

UM-SCC-14A cells = settings: read-out: IC50, growth; UM-SCC14A, 48 hr
Experimental: MTT cell survival assay and isobologram studies. The concentrations of agents that inhibited cell growth by 50% (IC50) were determined from cell survival plots obtained by MTT assays. […] A straight line joining points on x- and y-axes represent the IC50 concentrations of GMZ and L-t-C6-Pyr-Cer alone, and the points representing the IC50 concentrations of the combination of the two agents are represented as scatter plots on the same graphs. […] The experiments were performed as triplicates in at least 3 independent experiments.

UM-SCC-22A cells = assay: MTT cell survival assay and isobologram studies; assay type: cell-based, human; settings: for IC50: UM-SCC-22A, read-out: IC50, cell growth
Experimental: Human head and neck cancer cell lines UM-SCC-1 (retromolar trigone/floor of the mouth), UM-SCC-12 (primary tumor of larynx), and UM-SCC-22A cells were obtained from clinical samples. Cells were grown in DMEM containing 10% FCS and 1% penicillin/streptomycin at 37° C. in 5% CO2.
MTT cell survival assay and isobologram studies. The concentrations of agents that inhibited cell growth by 50% (IC50) were determined from cell survival plots obtained by MTT. Triplicate wells were used for each treatment. The final concentration of DMSO (a solvent for conventional ceramides, GMZ and DOX) in the growth medium was less than 0.1% (v/v) which has no effect on cell growth and survival. Pyridinium ceramides were dissolved in sterile water or growth medium. In short, after cells (5-10×10^3/well) were seeded in 96-well-plates for 24 hr, they were treated with increasing concentrations of ceramide analogs for an additional 48 or 96 hr. For combination treatments, ceramides and chemotherapeutic agents (gemcitabine (GMZ) or doxorubicin (DOX)) were added to the growth medium simultaneously during treatment. Isobologram plots were then constructed using IC50 values of the two agents alone or in combination obtained from MTT assays. A straight line joining points on x- and y-axes represent the IC50 concentrations of two agents, and the points representing the IC50 concentrations of the combination of the two agents are represented as scatter plots on the same graphs. In general, the points that fall within the left of the straight line indicate synergism. The experiments were performed as triplicates in at least 3 independent experiments.
Human head and neck cancer cell lines UM-SCC-1 (retromolar trigone/floor of the mouth), UM-SCC-14A (SCC of anterior floor of the mouth), and UM-SCC-22A (SCC of hypopharynx) cells were obtained. Cells were grown in DMEM containing 10% FCS and 1% penicillin/streptomycin at 37° C. in 5% CO2.
MTT cell survival assay and isobologram studies. The concentrations of agents that inhibited cell growth by 50% (IC50) were determined from cell survival plots obtained by MTT assays. […] In general, the points that fall within the left of the straight line indicate synergism. The experiments were performed as triplicates in at least 3 independent experiments. Error bars represent standard deviations.

[3] = BALB/c mice
Experimental: as §1, §2

telomeres = assay: Telomere length (TRF) in tumor tissues; assay type: in vivo, human; settings: versus untreated controls
Source text: FIG. 29. […] In (B), DNA samples obtained from tumors treated with GMZ (G), L-t-C6-Pyr-Cer (Cer), and the combination of L-t-C6-Pyr-Cer with GMZ (G/C, lanes 2-4, respectively) were compared to that of untreated (U) tumors (lane 1). Lanes 5 and 6 contain DNA samples with low (L) and high (H) molecular weight (3.9 and 10.2 kb, respectively) telomeres. In (D) The levels of hTERT protein in samples obtained from tumors treated with GMZ (G), L-t-C6-Pyr-Cer (Cer), and the combination of L-t-C6-Pyr-Cer with GMZ (G/Cer, lanes 2-4, respectively) were determined by Western blot analysis using rabbit polyclonal anti-hTERT antibody, and compared to that of untreated (U) tumors (lane 1). Lanes 5 and 6 contain samples from telomerase positive (+) and negative (−) extracts. Beta-actin levels of these samples were used as loading controls (lanes 1-6, lower panel). The data shown are representative of two independent trials, and error bars represent standard deviations.
Analysis of telomere length in tumor tissues. The measurement of telomere length was performed in total genomic DNA samples isolated from tumor tissues of the SCID mice using Telomere Restriction Fragment (TRF) Length measurement kit (Roche) by Southern blotting as described in Sundararaj, et al. J Biol Chem 2004; 279:6152-6162.

HNSCC tumors = assay: Endogenous ceramide and SM levels in HNSCC tumors, LC/MS; set-up: species or system SCID mice; settings: mouse, in vivo
Source text: FIG. 28. […] The levels of C14-, C16-, C18-, C24-, C24:1-, dihydro-C16-ceramides, and sphingosine are shown in (A), and C18:1-, C20-ceramides, and dihydro-sphingosine, and sphingosine-1-phosphate levels are shown in (B). The levels of C16-, C22-, C-24 and C24:1-SM levels are shown in (C), and C14-, C18-, C18:1-, C20, C20:1, and C22:1 SM levels are shown in (D).

Experimental for UM-SCC-22A xenografts: A) Upper Panel: In vivo therapeutic efficacy of L-t-C6-Pyr-Cer in combination with GMZ was determined in SKID mice harboring the UM-SCC-22A xenografts implanted in both flanks. The animals were treated with L-t-C6-Pyr-Cer and GMZ at 40 mg/kg/each every 4 days for 20 days. […] In these experiments, each group contained 6 mice, harboring 12 tumors, in this study. Error bars represent standard deviations, and p values were calculated. […] C) The blood counts, the levels of serum enzymes, and electrolytes were analyzed in response to L-t-C6-Pyr-Cer alone or in combination with GMZ in SKID mice.
After tumors were grown to about 200-400 mm^3 (about two weeks after implantation), the mice were treated without or with chemotherapeutic agents with intraperitoneal (IP) injection (alone or in combination) at half of their maximum tolerated doses (MTD) every 4 days for 20 days. Tumor volumes and the weights of the animals were measured before each treatment, and tumor sizes were measured at the end of the study. The endpoint was tumor rate of growth and/or tumor volume, which was calculated using the formula: length×width^2×0.52. Each experiment included at least 6 mice (which harbored two SCC tumors in flanks) per each treatment, and experiments were done at least in two independent trials.

Question: With `CCCCCCCCCCCCC/C=C/[C@H](O)[C@H](CO)NC(=O)CCCCC[n+]1ccccc1.[Br-]` [LCL124, L-threo-2-N-[6′-(1″-Pyridinium)-hexanoyl]-sphingosine Bromide] as the compound, how does the “inhibitory effect on MCF7 cell growth (in words)” value [1] read?
Answer: caused inhibitory effect on MCF7 cell growth

Question: And the “inhibition of HNSCC tumor growth” value (UM-SCC-22A xenografts; 40 mg/kg/each IP every 4 days for 20 days)?
Answer: some inhibition of HNSCC tumor growth

Question: And the “blood counts, serum enzyme activities and electrolytes” value (UM-SCC-22A xenografts; about 20 parameters)?
Answer: no detectable abnormalities

Question: What about the “toxicity to vital organs, histopathology” value (UM-SCC-22A xenografts; after completion of the study) of the same compound?
Answer: no detectable toxicity

Question: And the IC50 (UM-SCC-1 cells)?
Answer: 1 to 2 µM

Question: What about the “accumulation in the brain or heart” value [2] of the same compound?
Answer: no significant accumulation

Question: What about the “accumulation in the kidneys” value [2] of the same compound?
Answer: at high levels in the kidneys within 8-24 hr

Question: And the “time to clearance from the serum” value [2]?
Answer: ≤ 4 h

Question: And the serum level ([2]; 0.5 hr)?
Answer: 4,500 pmol/0.1 ml serum

Question: And the serum level ([2]; 2 hr)?
Answer: 6,500 pmol/0.1 ml serum

Question: What about the “level in the intestines” value ([2]; after 5 min) of the same compound?
Answer: about 600 pmol/mg protein

Question: And the “level in the liver” value ([2]; after 2 hr)?
Answer: ~500 pmol/mg protein

Question: What about the “accumulation in the lungs” value ([2]; after 24 hr) of the same compound?
Answer: some accumulation

Question: What about the IC50 (UM-SCC-14A cells) of the same compound?
Answer: 1 to 2 µM

Question: What about the “level in the intestines” value (absence of GMZ) of the same compound?
Answer: about 120 pmol/mg protein

Question: And the “level in the liver” value (absence of GMZ)?
Answer: ~100 pmol/mg protein

Question: And the “fold higher level in tumors than in intestines or liver” value (absence or presence of GMZ)?
Answer: 3-6 fold

Question: What about the “level in the tumors” value (combined with GMZ) of the same compound?
Answer: 3,100 pmol/mg

Question: And the “increase of level in the tumors when combined with GMZ” value (mouse, in vivo)?
Answer: about 40%

Question: And the “level in the intestines” value (presence of GMZ)?
Answer: 1,000 pmol/mg protein

Question: And the “level in the liver” value (presence of GMZ)?
Answer: 300 pmol/mg protein

Question: And the “accumulation in the tumor site” value (single agent)?
Answer: about 2,200 pmol/mg

Question: And the “interaction with GMZ, isobologram” value (UM-SCC-22A cells; UM-SCC-22A, 100, 250 and 500 nM with GMZ, 48 hr)?
Answer: decreased growth synergistically

Question: And the IC50 (UM-SCC-22A cells; 48 hr, listed as L-t-C6-Pyr-Cer)?
Answer: 1 to 2 µM

Question: And the IC50 (UM-SCC-22A cells; 48 hr, listed as L-th-C6-Pyr-Cer)?
Answer: ~1 µM

Question: And the IC50 (UM-SCC-22A cells; 96 hr, DMEM, listed as L-th-C6-Pyr-Cer)?
Answer: ~0.3 µM

Question: And the “doses without any detectable toxicity” value ([3]; 1-4 days)?
Answer: 10 to 80 mg/kg

Question: And the “maximum tolerated dose (MTD)” value ([3]; IP)?
Answer: 80 mg/kg

Question: And the “toxic concentrations (severe abdominal bloating, intestinal malfunction)” value ([3]; IP, 24 hr)?
Answer: ≥ 100 mg/kg

Question: And the “single dose resulting in toxicity (abdominal bloating, intestinal malfunction)” value ([3]; IP, after about 6 hr)?
Answer: 120 to 150 mg/mL

Question: What about the “reduction of TRF (telomere) length in tumors” value (telomeres) of the same compound?
Answer: about 500 bp

Question: And the “effect on endogenous SM levels” value (HNSCC tumors)?
Answer: no significant changes were observed

Question: What about the “effect on endogenous ceramides in tumor site” value (HNSCC tumors) of the same compound?
Answer: did not cause any sustained elevation of endogenous ceramides
